± gives the standard deviation of the averaged measurements.
Legend:
Assay in all cases: level (log10 ratio to DMSO vehicle control); higher = higher biomarker level / cell amount than vehicle control
Settings in all cases: in DMSO
[1] = compound: FC(F)(F)C(F)(F)C(F)(F)CC1CO1 [1H,1H-Heptafluorobutyl epoxide]
Experimental: (§1)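 BioMAP Diversity Plus panel of 12 human primary cell co-culture systems (3C, 4H, LPS, SAg, BT, BF4T, BE3C, CASM3C, HDF3CGF, KF3CT, MyoF, Mphg). Compounds were added 1 h before stimulation and left for 24 h (MyoF 48 h; BT 72 h for soluble read-outs or 6 d for IgG). Biomarkers were read by ELISA, cytotoxicity by SRB, PBMC viability and proliferation by Alamar Blue. Each well value was divided by the mean of 8 DMSO control wells on the same plate and log10 transformed; duplicate blinded samples were tested at 4 concentrations.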

Octafluoroadipamide = compound: NC(=O)C(F)(F)C(F)(F)C(F)(F)C(F)(F)C(N)=O [Octafluoroadipamide]
Experimental: as §1

[2] = compound: O=S(=O)(Cl)C(F)(F)C(F)(F)C(F)(F)C(F)(F)C(F)(F)C(F)(F)C(F)(F)C(F)(F)F [Perfluoro-1-octanesulfonyl chloride]
Experimental: as §1

Heptafluorobutyl iodide = compound: FC(F)(F)C(F)(F)C(F)(F)CI [Heptafluorobutyl iodide]
Experimental: as §1

[3] = compound: O=S(=O)(F)C(F)(F)C(F)(F)C(F)(F)C(F)(F)C(F)(F)C(F)(F)C(F)(F)C(F)(F)F [Perfluorooctanesulfonyl fluoride]
Experimental: as §1

[4] = compound: O=C(O)C=CC(F)(C(F)(F)F)C(F)(F)F [3-(Perfluoroisopropyl)-2-propenoic acid]
Experimental: as §1

Test System	level (log10) ([1]; 6700 nM)	level (log10) ([1]; 20000 nM)	level (log10) ([1]; 60000 nM)	level (log10) (Octafluoroadipamide; 6700 nM)	level (log10) (Octafluoroadipamide; 20000 nM)	level (log10) (Octafluoroadipamide; 60000 nM)	level (log10) ([2]; 6700 nM)	level (log10) ([2]; 20000 nM)	level (log10) ([2]; 60000 nM)	level (log10) (Heptafluorobutyl iodide; 6700 nM)	level (log10) (Heptafluorobutyl iodide; 20000 nM)	level (log10) (Heptafluorobutyl iodide; 60000 nM)	level (log10) ([3]; 6700 nM)	level (log10) ([3]; 20000 nM)	level (log10) ([3]; 60000 nM)	level (log10) ([4]; 6700 nM)	level (log10) ([4]; 20000 nM)	level (log10) ([4]; 60000 nM)
CASM3C:CD106/VCAM-1	-0.015 ± 0.035	-0.031 ± 0.014	0.0055 ± 0.013	-0.0525 ± 0.005	-0.04 ± 0.018	-0.0275 ± 0.033	-0.0395 ± 0.0092	-0.0455 ± 0.015	-0.0235 ± 0.032	-0.023 ± 0.013	-0.0245 ± 0.019	-0.028 ± 0.0042	0.0015 ± 0.032	0.0035 ± 0.05	-0.008 ± 0.0085	-0.0315 ± 0.013	-0.015 ± 0.0014	-0.0045 ± 0.071
HDF3CGF:CXCL9/MIG	-0.03 ± 0.031	-0.03 ± 0.068	-0.062 ± 0.05	-0.006 ± 0.0014	-0.0055 ± 0.015	0.016 ± 0.025	-0.0115 ± 0.019	-0.0165 ± 0.018	-0.0005 ± 0.026	-0.012 ± 0.0071	-0.0305 ± 0.016	-0.022 ± 0.011	-0.01 ± 0.0028	0.0125 ± 0.0092	-0.02 ± 0.017	0.017 ± 0.0071	0.02 ± 0.011	0.011 ± 0.023
KF3CT:CCL2/MCP-1	-0.031 ± 0.04	-0.0685 ± 0.023	-0.026 ± 0.042	-0.017 ± 0.0085	-0.026 ± 0.013	-0.001 ± 0.021	-0.031 ± 0.025	-0.0315 ± 0.019	-0.0485 ± 0.016	-0.0045 ± 0.0021	-0.018 ± 0.013	0.0195 ± 0.016	-0.0055 ± 0.0035	-0.0305 ± 0.033	0.001 ± 0.052	-0.012 ± 0.017	0 ± 0.027	0.0105 ± 0.053
CASM3C:Serum Amyloid A	0.0025 ± 0.012	0.003 ± 0.035	0.032 ± 0.061	0.012 ± 0.014	0.0085 ± 0.0092	0.0185 ± 0.028	-0.008 ± 0.011	-0.0165 ± 0.005	0.016 ± 0.025	-0.027 ± 0.0014	0.0075 ± 0.0021	0.0035 ± 0.012	0.0225 ± 0.0092	0.0245 ± 0.0078	0.0185 ± 0.011	0.0085 ± 0.005	-0.023 ± 0.017	0.026 ± 0.045
MyoF:PAI-I	-0.005 ± 0.024	-0.0105 ± 0.012	0 ± 0.016	-0.008 ± 0.027	0.0045 ± 0.0035	0.009 ± 0.0042	-0.018 ± 0.016	-0.0325 ± 0.016	-0.0415 ± 0.013	-0.0105 ± 0.0021	-0.005 ± 0.0028	0.007 ± 0.023	-0.0045 ± 0.0035	-0.0015 ± 0.00071	0.006 ± 0.0099	0.0125 ± 0.0078	0.007 ± 0.0099	0.009 ± 0.0014
HDF3CGF:MMP-1	0.0265 ± 0.012	0.028 ± 0.0099	0.0355 ± 0.0035	0.0035 ± 0.005	0.002 ± 0.011	0.0045 ± 0.012	-0.0435 ± 0.019	-0.017 ± 0.0099	0.016 ± 0.028	-0.014 ± 0.028	-0.0195 ± 0.021	-0.0255 ± 0.025	0.023 ± 0.03	0.029 ± 0.024	0.006 ± 0.051	0.0005 ± 0.012	0.008 ± 0.011	0.0005 ± 0.0064
MyoF:Collagen I	0.013 ± 0.018	-0.0025 ± 0.00071	-0.0105 ± 0.012	-0.0015 ± 0.015	0.009 ± 0.0071	0.0135 ± 0.0021	-0.009	-0.0185 ± 0.00071	-0.0665 ± 0.00071	-0.0015 ± 0.0035	-0.0195 ± 0.005	0.013 ± 0.018	0.0005 ± 0.0035	-0.005 ± 0.0099	0.003 ± 0.016	-0.0025 ± 0.012	-0.002 ± 0.0042	0.002 ± 0.0085
lMphg:SRB-Mphg	0.012 ± 0.0085	-0.0005 ± 0.021	-0.0085 ± 0.005	-0.02 ± 0.027	-0.0265 ± 0.018	0.003 ± 0.018	0.0025 ± 0.013	0.004 ± 0.016	-0.0185 ± 0.025	-0.0065 ± 0.005	0.0055 ± 0.0078	0.007 ± 0.031	0.0065 ± 0.005	-0.004	0.004 ± 0.0042	0.0005 ± 0.013	0.004 ± 0.0085	0.0075 ± 0.015
4H:VEGFR2	-0.012 ± 0.0071	0 ± 0.017	0.031 ± 0.11	0.012 ± 0.05	0.025 ± 0.0057	0.0225 ± 0.03	0.0185 ± 0.019	0.014 ± 0.0085	0.0265 ± 0.0078	-0.0075 ± 0.005	0.0155 ± 0.063	0.0445 ± 0.036	-0.001 ± 0.03	-0.01 ± 0.021	0 ± 0.027	-0.0145 ± 0.019	0.004 ± 0.05	0.01 ± 0.045
CASM3C:SRB	-0.006 ± 0.014	0.0055 ± 0.0035	-0.0035 ± 0.005	0.0075 ± 0.013	0.002 ± 0.013	-0.005 ± 0.0042	0.0075 ± 0.00071	0.0045 ± 0.0078	0.014 ± 0.0042	-0.0085 ± 0.0064	0.002 ± 0.0042	0.0055 ± 0.0078	0.002 ± 0.0014	-0.006 ± 0.0071	-0.0015 ± 0.0021	0.006 ± 0.0042	-0.011 ± 0.0042	-0.003 ± 0.0028
MyoF:bFGF	-0.0035 ± 0.0035	-0.002 ± 0.0028	-0.0025 ± 0.015	-0.0115 ± 0.015	-0.014 ± 0.011	0.0135 ± 0.0078	-0.007 ± 0.014	-0.039 ± 0.0014	-0.029 ± 0.034	0.0115 ± 0.019	0.01 ± 0.0028	0.0115 ± 0.005	0 ± 0.0014	-0.0085 ± 0.00071	0.0095 ± 0.018	0 ± 0.0028	0.006 ± 0.027	0.006 ± 0.017
KF3CT:PAI-I	-0.0145 ± 0.00071	-0.0115 ± 0.018	-0.014 ± 0.0085	-0.0155 ± 0.012	-0.0145 ± 0.025	0.004 ± 0.02	-0.036 ± 0.014	-0.116 ± 0.0057	-0.2505 ± 0.0021	0.0005 ± 0.0035	-0.0185 ± 0.016	-0.008 ± 0.0071	-0.0005 ± 0.018	-0.008 ± 0.0057	0.0025 ± 0.012	0.0045 ± 0.0092	0.023 ± 0.0085	0.0165 ± 0.0021
3C:CD87/uPAR	-0.0185 ± 0.026	0 ± 0.021	-0.01 ± 0.0071	0.012 ± 0.011	-0.0005 ± 0.011	-0.0145 ± 0.0092	0.011 ± 0.024	-0.0065 ± 0.016	-0.199 ± 0.033	-0.0375 ± 0.0092	-0.05 ± 0.051	-0.032 ± 0.041	-0.0125 ± 0.012	-0.0085 ± 0.012	-0.006 ± 0.0014	0.025 ± 0.0071	0.033 ± 0.038	0.0465 ± 0.042
HDF3CGF:CXCL10/IP-10	-0.0275 ± 0.0078	-0.0285 ± 0.053	-0.054 ± 0.054	0.011 ± 0.0028	-0.0045 ± 0.016	0.031 ± 0.03	-0.0115 ± 0.0021	-0.046 ± 0.021	-0.0365 ± 0.018	0.0035 ± 0.012	-0.007 ± 0.011	-0.017 ± 0.014	-0.0005 ± 0.0021	-0.015 ± 0.011	-0.012 ± 0.014	-0.007 ± 0.034	0.0025 ± 0.035	-0.001 ± 0.027
